Results on 1 compound are retold here after US20260216197A1, “WRN HELICASE INHIBITOR” (SUZHOU PUHE BIOPHARMA CO., LTD., priority 2022, published 2026).

Broadly, the IC50 is the concentration needed to halve the response being measured. In general, CLint scaled refers to the capacity of the preparation to metabolise the compound, expressed as a volume cleared per time. The Papp A→B is how fast a substance crosses the layer from the apical side. A lower Papp A→B goes with poor permeation. By Papp B→A is commonly meant how fast a substance crosses the layer from the basolateral side.

One data set deals with WRN helicase (Homo sapiens, UniProt Q14191). Description: WRN helicase hydrolysis/unwinding of double-stranded DNA (fluorescence). Format: biochemical. In outline: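 Human WRN helicase preincubated 30 min in the dark with compound (top final concentration 10 μM, 4-fold dilutions). Reaction started with 19-bp double-stranded DNA labelled 3′-TAMRA/5′-BHQ2, run 60 min at room temperature; IC50 from fluorescence change (Ex530/Em590) versus DMSO blank.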
WRN helicase, sequence (Q14191 whole entry): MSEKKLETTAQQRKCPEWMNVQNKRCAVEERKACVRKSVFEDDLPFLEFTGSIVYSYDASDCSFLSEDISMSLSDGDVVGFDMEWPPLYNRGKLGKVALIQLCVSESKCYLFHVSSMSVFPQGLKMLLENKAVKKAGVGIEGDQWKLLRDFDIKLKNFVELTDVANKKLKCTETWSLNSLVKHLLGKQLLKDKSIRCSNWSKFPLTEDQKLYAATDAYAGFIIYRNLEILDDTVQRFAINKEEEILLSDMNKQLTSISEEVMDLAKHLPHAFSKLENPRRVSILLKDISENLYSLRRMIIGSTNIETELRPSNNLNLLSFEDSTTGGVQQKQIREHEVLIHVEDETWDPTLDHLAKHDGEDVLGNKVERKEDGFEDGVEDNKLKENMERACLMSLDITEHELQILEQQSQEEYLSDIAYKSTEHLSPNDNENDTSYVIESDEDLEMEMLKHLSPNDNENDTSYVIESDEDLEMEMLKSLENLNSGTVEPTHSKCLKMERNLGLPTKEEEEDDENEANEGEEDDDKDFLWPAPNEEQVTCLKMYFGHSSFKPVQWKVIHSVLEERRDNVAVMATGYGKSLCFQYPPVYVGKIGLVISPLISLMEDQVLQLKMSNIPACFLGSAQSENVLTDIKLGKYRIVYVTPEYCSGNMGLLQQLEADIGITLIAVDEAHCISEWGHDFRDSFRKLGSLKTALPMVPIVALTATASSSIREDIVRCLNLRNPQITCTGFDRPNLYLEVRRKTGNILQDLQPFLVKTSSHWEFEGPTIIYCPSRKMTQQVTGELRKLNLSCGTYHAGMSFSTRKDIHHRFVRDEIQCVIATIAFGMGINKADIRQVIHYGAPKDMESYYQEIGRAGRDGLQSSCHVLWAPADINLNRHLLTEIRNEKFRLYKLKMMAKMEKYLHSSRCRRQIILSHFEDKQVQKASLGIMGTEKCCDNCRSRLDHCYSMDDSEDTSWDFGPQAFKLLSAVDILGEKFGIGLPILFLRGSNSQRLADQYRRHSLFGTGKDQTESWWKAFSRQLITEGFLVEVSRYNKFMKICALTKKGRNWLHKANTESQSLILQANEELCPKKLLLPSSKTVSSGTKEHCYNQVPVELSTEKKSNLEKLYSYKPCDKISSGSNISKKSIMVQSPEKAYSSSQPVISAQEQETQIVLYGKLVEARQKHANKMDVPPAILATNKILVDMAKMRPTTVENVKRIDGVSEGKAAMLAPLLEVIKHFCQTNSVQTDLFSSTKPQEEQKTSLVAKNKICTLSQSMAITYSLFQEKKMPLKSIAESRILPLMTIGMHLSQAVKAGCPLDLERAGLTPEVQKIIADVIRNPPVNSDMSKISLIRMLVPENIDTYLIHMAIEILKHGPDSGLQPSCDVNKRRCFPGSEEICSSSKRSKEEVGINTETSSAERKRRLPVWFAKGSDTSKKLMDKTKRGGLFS

In data set [1] the test system is MSS colorectal cancer HT-29 cell line. Description: 2D anti-proliferative activity, MSS HT-29 cells (CTG, 5 days). Format: cell-based. Particulars: Homo sapiens, 120 h. In outline:
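HT-29 cells in McCoy's 5A with 10% FBS exposed to compound for 5 days at 37° C, 5% CO2 in 384-well format. Viable cells read as ATP luminescence (CellTiter-Glo) after 30 min.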

A short description of data set [2]: Liver microsome stability test. Format: in vitro ADME. Particulars: human liver microsomes 0.5 mg/mL, compound 1 μM, NADPH 1 mM, 60 minutes. (In general: Liver microsomes are vesicles of endoplasmic reticulum, rich in cytochrome P450 enzymes.)
A short description of data set [3]: Caco-2 membrane permeability assay. The following applies: human; Caco-2, apical pH 6.5, basolateral pH 7.4. Format: in vitro ADME. The method, then:
The membrane permeability of the molecule of the present disclosure was evaluated. Samples were analyzed by LC-MS to estimate the apparent permeability coefficient (Papp) of the compounds across Caco-2 cell monolayers, with the apical chamber at pH 6.5 and the basolateral chamber at pH 7.4. Active efflux transport of compounds can be blocked using inhibitors of P-gp efflux transporter, BCRP, and MRP2 (50 μM quinidine, 30 μM benzbromarone, and 20 μM sulfasalazine). The data were used to determine apparent permeability (Papp).
[formula] • where VA is the volume of the receptor pore (in mL), Area is the surface area of the membrane (0.143 cm^2 for Transwell-96 well permeable scaffolds), and time is the total transport time (in seconds).

Data set [4] has as its system SW 48 (MSI-H) colorectal cancer cells. As to the kind of experiment: In vivo pharmacodynamic assay, SW48 xenograft in nude mice. On the set-up: species or system BALB/c nude mice. The following applies: 50 mg/kg, QD, oral. The method, then:
In vivo pharmacodynamic assay in BALB/c nude mice. Details are as follows:
SW 48 (MSI-H) colorectal cancer cells were cultured (L15 medium with 10% fetal bovine serum), and then inoculated into 6-8-week old female BALB/c nude mice (weighing about 20 g), wherein all mice were inoculated subcutaneously. The mice were cultured in an SPF-grade experimental environment, and all mice had free access to commercially certified standard diets. When the average tumor volume of the mice grew to about 150 mm^3, the test compound was orally administered daily. The dosage was as follows: blank group vehicle (10% HP-β-CD aqueous solution, pH-7). The dosage of the administration group was 120 mg/kg, 50 mg/kg, or 20 mg/kg, once a day. The tumor volume was measured with a two-dimensional caliper three times a week, and the animals were weighed every day. […] The tumor volume was calculated using the formula: V=½a*b^2, where a represents the long diameter of the tumor, and b represents the short diameter of the tumor.

As to `CCc1c(N2CCN(C(=O)c3ncnc(C)c3O)CC2)c(=O)n2nc(C3=CCOCC3)nc2n1CC(=O)Nc1ccc(C(F)(F)F)c2ccoc12` [Compound H22], the IC50 at WRN helicase was 1.4 nM. In data set [1], this compound had an IC50 of more than 10000 nM. Also, the intrinsic metabolic clearance (CLint scaled) at 1 μM in data set [2] is less than 6.8 mL/min/kg. Besides, the microsomal CLint at 1 μM in data set [2] (read-out: Human Clint μL/min/mg Protein) is less than 5.4 µL/min/mg. Also, in data set [3], the Papp A→B was found to be 3.2 ×10⁻⁶ cm/s and the basolateral-to-apical permeability (Papp B→A) was 21 ×10⁻⁶ cm/s. The TGI in data set [4] is reported as 104%. Besides, in data set [4] (day 1), the “Tumor volume (mm^3)-D 1” value is on record as 162 mm^3. Besides, the “Tumor volume (mm^3)-D 21” value in data set [4] (day 21) stood at 89 mm^3.
